The text below walks through data of patent publication US7537906B2, “Apoptosis inducer and method of screening for a substance inhibiting acylated homoserine lactone” (priority 2003, dated 2009).

Experiment [1] relates to CaCo-2 cells. As to the kind of experiment: Evaluation of apoptosis by DNA fragmentation (DNA ladder). Format: cell-based, human. To be noted: CaCo-2 cells cultured for 12 hours, 0-100 μM. As for the experimental part: 5×10^6 CaCo-2 cells were inoculated per 15 cm dish (NUNC), washed twice with PBS (-), and then cultured in a serum-free DMEM medium containing 1% NEAA for 24 hours. N-(3-oxododecanoyl)-L-homoserine lactone was added at each concentration (1 μM to 100 μM), followed by 12 hours of culture. Subsequently, the supernatant and the cells removed from the dish using TE were centrifuged at room temperature at 800 rpm for 5 minutes, and the supernatant was removed. The cells were suspended with 300 μl of PBS (-), and then the suspension was centrifuged again at 4° C. at 2500 rpm for 5 minutes, and the supernatant was removed. The cells were lysed by the addition of 300 μl of a cytolysis buffer [10 mM Tris-HCl (pH 7.4), 10 mM EDTA (pH 8.0), 0.5% Triton X-100], and then allowed to stand on ice for 10 minutes, thereby extracting DNA fragments. The extract was centrifuged at 4° C. at 14000 rpm for 10 minutes. RNase A was added to the obtained supernatant, and then incubation was carried out at 37° C. for 1 hour. Proteinase K was further added, and then incubation was carried out at 50° C. for 30 minutes. The extract of the DNA fragments was concentrated by ethanol precipitation, and then electrophoresis was carried out using 2% agarose gel. After the gel was stained with ethidium bromide, DNA fragmentation was detected under a UV transilluminator.

The subject of experiment [2] is Akt. As to the kind of experiment: Akt activity (phospho-Akt) by Western blot in CaCo-2 cells. Format: cell-based, human. To be noted: stimulation at 10 μM.

Bounds are passed on as bounds.

With `CCCCCCCCCC(=O)CC(=O)N[C@H]1CCOC1=O` [N-(3-oxododecanoyl)-L-homoserine lactone], the “concentration at which the DNA ladder was observed” value in experiment [1] is ≥ 30 µM. The “inhibition of Akt activity lasted until (after stimulation)” value in experiment [2] came to 6 h.
